Experimental findings from ChEMBL document CHEMBL1121939, “1-beta-D-arabinofuranosyl-1H-imidazo[4,5-c]pyridine (ara-3-deazaadenine)” (J Med Chem, 1982) are described below.

The test system of one assay is L929. In words: Inhibitory activity against herpes simplex virus type 1 grown in L929 cells. In kind it is functional, Mus musculus.
The next assay addresses Adenosylhomocysteinase (Homo sapiens, UniProt P23526). In words: Inhibitory activity against S-adenosyl-homocysteine hydrolase. Details: species or system herpes simplex virus. Conditions: read-out: I50.

Adenosylhomocysteinase, sequence (P23526 whole entry): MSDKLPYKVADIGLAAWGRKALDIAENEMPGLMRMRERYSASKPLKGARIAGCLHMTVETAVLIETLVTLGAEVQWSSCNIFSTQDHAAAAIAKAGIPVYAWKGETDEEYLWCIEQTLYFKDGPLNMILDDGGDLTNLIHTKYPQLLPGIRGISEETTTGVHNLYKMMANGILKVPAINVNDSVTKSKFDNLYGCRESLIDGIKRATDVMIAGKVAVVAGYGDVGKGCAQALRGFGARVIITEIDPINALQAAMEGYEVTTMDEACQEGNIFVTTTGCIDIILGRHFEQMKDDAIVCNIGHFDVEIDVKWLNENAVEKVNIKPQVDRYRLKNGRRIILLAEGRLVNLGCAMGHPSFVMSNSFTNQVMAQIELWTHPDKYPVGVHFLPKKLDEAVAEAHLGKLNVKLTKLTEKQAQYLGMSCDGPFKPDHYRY

`Nc1ncnc2c1ncn2[C@@H]1O[C@H](CO)[C@@H](O)[C@@H]1O` [VIDARABINE]: in the assay on L929, the MED50 came out at 0.8 µg/mL and the Virus rating came out at 3.7.
As for `Nc1nccc2c1ncn2[C@@H]1O[C@H](CO)[C@@H](O)[C@@H]1O`, the IC50 on Adenosylhomocysteinase worked out at 100 µM. In the assay on L929, this compound showed an MED50 of 189 µg/mL and a Virus rating of 0.8.
`Nc1nccc2c1ncn2[C@@H]1O[C@H](CO)[C@@H](O)[C@H]1O`: the IC50 at Adenosylhomocysteinase was 4 µM.
